Source: ChEMBL document CHEMBL6087423, “Grafting a chromophore on AMD070 analogues for CXCR4 bioimaging: Chemical synthesis and in vitro assessment of the inhibition properties of the CXCR4 receptor” (Bioorg Med Chem Lett, 2025)

How the values were obtained:
[1] = target: T1, C-X-C chemokine receptor type 4 (Homo sapiens, UniProt P61073); assay: Binding affinity to CXCR4 (unknown origin)
[2] = system: Human immunodeficiency virus 1; assay: Anti-HIV activity against HIV-1 IIIB infected in MT-4 cells; type: functional, organism-based; details: Human immunodeficiency virus 1, IIIB, MT4
[3] = system: Human immunodeficiency virus 2; assay: Anti-HIV activity against HIV-2 ROD infected in MT-4 cells; type: functional, organism-based; details: Human immunodeficiency virus 2, ROD, MT4
[4] = target: T1, C-X-C chemokine receptor type 4; assay: Inhibition of 12G5-PE binding to CXCR4 in human U266B1 cells assessed as cell viability incubated for 1 hr by DAPI staining based flow cytometric analysis

T1 sequence (P61073 whole entry): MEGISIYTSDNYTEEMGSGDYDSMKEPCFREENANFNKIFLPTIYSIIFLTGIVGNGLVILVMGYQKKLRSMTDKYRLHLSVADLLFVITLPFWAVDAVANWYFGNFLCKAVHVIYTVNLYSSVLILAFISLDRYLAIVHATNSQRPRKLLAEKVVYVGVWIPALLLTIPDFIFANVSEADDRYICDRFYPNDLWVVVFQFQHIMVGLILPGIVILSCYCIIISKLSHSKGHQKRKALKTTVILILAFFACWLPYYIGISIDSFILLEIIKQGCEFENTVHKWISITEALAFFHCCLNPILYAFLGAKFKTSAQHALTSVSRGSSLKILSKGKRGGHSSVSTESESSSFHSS

Work on `NCc1cc(C(N)=O)ccc1CN(Cc1nc2ccccc2[nH]1)C1CCCc2cccnc21` (stereo not given) yielded an IC50 [1] of 10 nM.
For `C1CNCCNCCCNC(C2CNCCCNCCNCCCN2)CNC1` (stereo not given), the IC50 [2] was 100 nM and the IC50 [3] was 100 nM.
`O=C1OC2(c3ccc(O)cc3Oc3cc(O)ccc32)c2ccc(NC(=S)NCCCCN(Cc3nc4ccccc4[nH]3)C3CCCc4cccnc43)cc21` (stereo not given) gave an IC50 [4] of 5.62 µM.
Compound `COC(=O)C(=O)c1ccc(CN(Cc2nc3ccccc3[nH]2)C2CCCc3cccnc32)c(CN)c1` (stereo not given) has an IC50 [1] of 10 nM.
